Results on 16 molecules are retold here after patent US10934282B2, “Heteroaromatic modulators of the retinoid-related orphan receptor gamma” (LEO PHARMA A/S, priority 2016, dated 2021).

The structures appear in SMILES notation. pEC50: −log10 of the molar value.

Test [1] deals with T1, human RORgt nuclear receptor (RORgT ligand binding domain protein) (Homo sapiens, UniProt P51449).
T1 construct: purchased Proteros Biostructures GmbH
T1 sequence (P51449 with tags, fused parts or gaps): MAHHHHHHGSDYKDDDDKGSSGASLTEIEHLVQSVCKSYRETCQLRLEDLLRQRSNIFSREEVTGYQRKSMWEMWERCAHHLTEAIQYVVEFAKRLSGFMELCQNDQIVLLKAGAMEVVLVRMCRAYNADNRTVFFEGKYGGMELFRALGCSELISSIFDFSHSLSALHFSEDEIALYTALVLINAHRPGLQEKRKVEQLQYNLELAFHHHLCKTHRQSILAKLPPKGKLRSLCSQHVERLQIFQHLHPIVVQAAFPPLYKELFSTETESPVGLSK
The test can be described thus: ROR-gamma binding assay (Scintillation Proximity Assay, displacement of [3H]-25-hydroxycholesterol). Conditions: EC50, SPA, 15 nM [3H]-25-Hydroxycholesterol, RORgT LBD 12 nM. The gist of the method: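 SPA competition of compound against 15 nM [3H]-25-hydroxycholesterol for His/FLAG-tagged human RORγt LBD (12 nM) on His-tag PVT beads, in 50 mM HEPES pH 7.4, 150 mM NaCl, 5 mM MgCl2, 0.1% BSA, 0.5% DMSO. 30 min preincubation, then ≥4 h at room temperature in darkness; EC50 by four-parameter fit.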
Background: Scintillation proximity formats need no separation of bound from free tracer.

Test [2] relates to IL-17A in Human peripheral mononuclear cells. Description: Human PBMC IL-17A assay. Format: cell-based. Conditions: 72 h, EC50, antiCD3/antiCD28-coated beads, 3 days, alpha-LISA. Put shortly:
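Cryopreserved human PBMC (130,000/well) stimulated with anti-CD3/anti-CD28-coated beads (1 cell per bead) in RPMI-1640 with 10% bovine calf serum, compounds at 0.1% DMSO, for 3 days. Supernatant IL-17A measured by AlphaLISA, viability by PrestoBlue; EC50 from 4-parameter non-linear regression.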
For orientation: Bead proximity is the source of the signal in Alpha formats.

Test [3] relates to IL-17A levels in human peripheral blood. Description: tissue or blood. Format: cell-based. The note with it: 72 h, read-out: Human Whole blood IL-17A (nM).

As to `Cc1c(CN2CCN(C(=O)OC(C)C)[C@@H](C)C2)cc(Cl)cc1Nc1nnc([C@H](C)O)o1` [Example 63, isopropyl (2S)-4-[[5-chloro-3-[[5-[(1S)-1-hydroxyethyl]-1,3,4-oxadiazol-2-yl]amino]-2-methyl-phenyl]methyl]-2-methyl-piperazine-1-carboxylate], the pEC50 in test [1] was 7.46; in test [2] it was 7.21. The EC50 in test [3] worked out at 187 nM.
The corresponding values for `Cc1c(CN2CCN(C(=O)OC(C)C)[C@@H](C)C2)cc(Cl)cc1Nc1nnc([C@H]2C[C@H](O)C2)o1` [Example 64, isopropyl (2S)-4-[[5-chloro-3-[[5-(3-hydroxycyclobutyl)-1,3,4-oxadiazol-2-yl]amino]-2-methyl-phenyl]methyl]-2-methyl-piperazine-1-carboxylate] are 7.30, 6.88 and 191 nM.
Turning to `Cc1cc(CN2CCN(C(=O)OC(C)C)[C@@H](C)C2)c(C)c(Nc2nnc([C@@H]3CCCN3S(C)(=O)=O)o2)c1` [Example 65, isopropyl (2S)-4-[[2,5-dimethyl-3-[[5-[(2S)-1-methylsulfonylpyrrolidin-2-yl]-1,3,4-oxadiazol-2-yl]amino]phenyl]methyl]-2-methyl-piperazine-1-carboxylate], the pEC50 in test [1] was 7.32; in test [2], 7.23. Also, the EC50 in test [3] turned out to be 107 nM.
The corresponding values for `Cc1cc(CN2CCN(C(=O)OC(C)C)[C@@H](C)C2)c(C)c(Nc2nnc([C@H](C)O)o2)c1` [Example 66, isopropyl (2S)-4-[[3-[[5-[(1S)-1-hydroxyethyl]-1,3,4-oxadiazol-2-yl]amino]-2,5-dimethyl-phenyl]methyl]-2-methyl-piperazine-1-carboxylate] are 7.26, 7.11 and 140 nM.
The corresponding values for `Cc1c(CN2CCN(C(=O)OC(C)C)[C@@H](C)C2)cc(Cl)cc1Nc1nnc(C2CNC(=O)C2)o1` (stereo partly drawn) [Example 67, isopropyl (2S)-4-[[5-chloro-2-methyl-3-[[5-(5-oxopyrrolidin-3-yl)-1,3,4-oxadiazol-2-yl]amino]phenyl]methyl]-2-methyl-piperazine-1-carboxylate] are 7.21, 7.33 and 597 nM.
The corresponding values for `Cc1cc(CN2CCN(C(=O)OC(C)C)[C@@H](C)C2)c(C)c(Nc2nnc([C@@H](C)N)o2)c1` [Example 68, isopropyl (2S)-4-[[3-[[5-[(1R)-1-aminoethyl]-1,3,4-oxadiazol-2-yl]amino]-2,5-dimethyl-phenyl]methyl]-2-methyl-piperazine-1-carboxylate] are 6.99, 6.74 and 552 nM.
For the molecule `Cc1cc(CN2CCN(C(=O)OCC(F)(F)F)[C@@H](C)C2)c(C)c(Nc2nnc([C@H]3C[C@@H](O)C3)o2)c1` [Example 70, 2,2,2-trifluoroethyl (2S)-4-[[3-[[5-(3-hydroxycyclobutyl)-1,3,4-oxadiazol-2-yl]amino]-2,5-dimethyl-phenyl]methyl]-2-methyl-piperazine-1-carboxylate], the pEC50 in test [1] is 7.28; in test [2], 7.11. The EC50 in test [3] turned out to be 227 nM.
For the molecule `CCOC(=O)N1CCN(Cc2cc(C)cc(Nc3nnc([C@@H](C)O)o3)c2C)C[C@@H]1C` [Example 71, ethyl (2S)-4-[[3-[[5-[(1R)-1-hydroxyethyl]-1,3,4-oxadiazol-2-yl]amino]-2,5-dimethyl-phenyl]methyl]-2-methyl-piperazine-1-carboxylate], the pEC50 in test [1] was 7.21; in test [2], 6.65. For the same molecule, the EC50 in test [3] came out at 307 nM.
The corresponding values for `Cc1cc(CN2CCN(C(=O)OC(C)C)[C@@H](C)C2)c(C)c(Nc2nnc([C@@H](O)CO)o2)c1` [Example 72, isopropyl (2S)-4-[[3-[[5-[(1S)-1,2-dihydroxyethyl]-1,3,4-oxadiazol-2-yl]amino]-2,5-dimethyl-phenyl]methyl]-2-methyl-piperazine-1-carboxylate] are 7.09, 6.58 and 258 nM.
With `Cc1c(CN2CCN(C(=O)OC(C)(C)C)[C@@H](C)C2)cc(Cl)cc1Nc1ncc(CO)o1` [Example 74, tert-butyl (2S)-4-[[5-chloro-3-[[5-(hydroxymethyl)oxazol-2-yl]amino]-2-methyl-phenyl]methyl]-2-methyl-piperazine-1-carboxylate], the pEC50 is 7.14 in test [1] and 6.39 in test [2]. In test [3], the EC50 was found to be 946 nM.
Regarding `Cc1cc(CN2CCN(C(=O)O[C@H](C)C(F)(F)F)[C@@H](C)C2)c(C)c(Nc2nnc([C@@H](O)CO)o2)c1` [Example 75, [(1R)-2,2,2-trifluoro-1-methyl-ethyl] (2S)-4-[[3-[[5-[(1S)-1,2-dihydroxyethyl]-1,3,4-oxadiazol-2-yl]amino]-2,5-dimethyl-phenyl]methyl]-2-methyl-piperazine-1-carboxylate], the pEC50 was 7.49 in test [1] and 7.28 in test [2]. In addition, the EC50 in test [3] was found to be 158 nM.
The corresponding values for `Cc1cc(CN2CCN(C(=O)OC(C)C)[C@@H](C)C2)c(C)c(Nc2nnc([C@@H]3CCOC3)o2)c1` [Example 76, isopropyl (2S)-4-[[2,5-dimethyl-3-[[5-[(3R)-tetrahydrofuran-3-yl]-1,3,4-oxadiazol-2-yl]amino]phenyl]methyl]-2-methyl-piperazine-1-carboxylate] are 7.59, 7.22 and 112 nM.
The corresponding values for `Cc1cc(CN2CCN(C(=O)OC(C)C)[C@@H](C)C2)c(C)c(Nc2nnc([C@H]3NCC[C@H]3O)o2)c1` [Example 77, isopropyl (2S)-4-[[3-[[5-[(2S,3R)-3-hydroxypyrrolidin-2-yl]-1,3,4-oxadiazol-2-yl]amino]-2,5-dimethyl-phenyl]methyl]-2-methyl-piperazine-1-carboxylate] are 7.21, 6.74 and 368 nM.
For `Cc1cc(CN2CCN(C(=O)C3CCCC3)[C@@H](C)C2)c(C)c(Nc2nnc([C@H]3NCC[C@H]3O)o2)c1` [Example 78, cyclopentyl-[(2S)-4-[[3-[[5-[(2S,3R)-3-hydroxypyrrolidin-2-yl]-1,3,4-oxadiazol-2-yl]amino]-2,5-dimethyl-phenyl]methyl]-2-methyl-piperazin-1-yl]methanone], the pEC50 in test [1] is 7.14; in test [2], 7.02. The EC50 in test [3] stood at 157 nM.
The corresponding values for `Cc1cc(CN2CCN(C(=O)C3CCC(F)(F)C3)[C@@H](C)C2)c(C)c(Nc2nnc([C@H]3NCC[C@H]3O)o2)c1` (stereo partly drawn) [Example 79, (3,3-difluorocyclopentyl)-[(2S)-4-[[3-[[5-[(2S,3R)-3-hydroxypyrrolidin-2-yl]-1,3,4-oxadiazol-2-yl]amino]-2,5-dimethyl-phenyl]methyl]-2-methyl-piperazin-1-yl]methanone] are 6.56, 5.91 and 3530 nM.
The corresponding values for `Cc1cc(CN2CCN(C(=O)OC(C)C)[C@@H](C)C2)c(C)c(Nc2nnc([C@@H]3CNC(=O)C3)o2)c1` [Example 83, isopropyl (2S)-4-[[2,5-dimethyl-3-[[5-[(3S)-5-oxopyrrolidin-3-yl]-1,3,4-oxadiazol-2-yl]amino]phenyl]methyl]-2-methyl-piperazine-1-carboxylate] are 7.17, 6.91 and 240 nM.

In general, pEC50 refers to the negative decadic logarithm of the EC50, by convention in mol/L. Read a high pEC50 as a small EC50.
